Patent publication US9187486B2 (AMGEN INC., priority 2011, dated 2015)
Where two headings read alike, the source gives them in different places.

Tests used:
Pim-2 = Pim-2 (Homo sapiens (Human), UniProt Q9P1W9); experiment: Pim enzyme assay (HTRF, phosphorylation of biotinylated-BAD (S112) peptide), Pim-2; format: biochemical
Source text: (§1) Full-length human cDNAs encoding Pim-1 (MGC ID 3913552) or Pim-2 (IMAGE ID 5092935) were purchased from Invitrogen, Carlsbad, Calif. These cDNAs were used as templates in PCR reactions to produce full-length DNA clones of the PIMs. Oligonucleotide PCR primers for Pim-1 were 5′-[…]-3′ and 5′-[…]-3′. Oligonucleotide PCR primers for Pim-2 were 5′-[…]-3′ and 5′-[…]-3′. PCR products were digested with BclI and EcoRI for Pim-1 and BamHI and EcoRI for Pim-2 and ligated into a modified baculovirus transfer vector (pFastBac 1) cleaved with BamHI and EcoRI. For bacterial expression, the same cleaved PCR products encoding Pim-1 or Pim-2 were ligated into a modified E. coli expression vector pET28(a) cleaved with BamHI and EcoRI. Amino-terminal hexahistidine tags followed by a thrombin cleavage site were previously added to the vectors using standard methods of molecular biology. Recombinant baculoviruses expressing Pim-1 or Pim-2 were made using standard methods (Fastbac manual, Invitrogen, Carlsbad, Calif.). Infection of Sf9 cells was done at an m.o.i. of greater than 5 for 24-48 h. Cells were harvested by centrifugation and frozen at −80 C. For E. coli expression, cells carrying pET28-His6-Th-Pim-1 or pET28-His6-Th-Pim-2 were picked from a single colony and grown o/n in LB media. The o/n culture was used to inoculate a 2 liter flask with 500 mL media. This was grown o/n and used to inoculate 15-20 liters of Terrific Broth in a New Brunswick Scientific fermentor. The E. coli were grown at 37° C. to and OD600>1.6. The temperature was dropped to 18° C. and o/n expression was induced with 0.5 mM IPTG. Cells were harvested by centrifugation and frozen at −80° C.
(§2) The frozen cell pellets were thawed by stirring in chilled lysis buffer (0.05 M HEPES, pH 8.0, 0.25 M NaCl, 0.01 M 2-mercaptoethanol, 10% (w/v) glycerol, 0.5% (v/v) protease inhibitor cocktail (Sigma P-8340) at a ratio of 1 L/200 g cells until homogeneous. The thawed suspension was applied to a microfluidizer at 10,000 PSI to disrupt the cells and the whole lysates were clarified by centrifugation at 50,000×g for 90 min, 4° C. Imidazole was added to the clarified lysate to a final concentration of 2.5 mM and the lysate was mixed with 10 mL of Talon resin (Clontech) and the slurry rocked gently overnight at 4° C. The slurry was centrifuged at 1,000×g for 5 min, the supernatant decanted, and the resin suspended in 40 mL of lysis wash buffer (lysis buffer at 0.75 M NaCl). This step was repeated 3× and the resin was transferred to a 2.5 cm glass column. Ten column volumes of wash buffer (0.05 M HEPES, pH 8.0, 0.1 M NaCl, 0.01 M 2-mercaptoethanol, 10% (w/v) glycerol) were applied to the resin followed by 10 column volumes of elution buffer (0.05 M HEPES, pH 8.0, 0.25 M NaCl, 0.01 M 2-mercaptoethanol, 10% (w/v) glycerol, 0.1 M imidazole). Fractions were analyzed by SDS-PAGE and those containing the protein of interest were pooled and concentrated. The concentrated protein was applied to an Amersham Superdex 75 (XK 26/60) column equilibrated in 0.025 M Tris-HCl, pH 7.5, 0.1 M NaCl, 0.01 M 2-mercaptoethanol, 10% (w/v) glycerol. […] Fractions containing the monomeric protein of interest were pooled, concentrated to ˜2 mg/mL, and stored at −80° C.
(§3) The phosphorylation of biotinylated-BAD (S112) peptide by full length recombinant Pim-1, Pim-2, or Pim-3 protein was detected with streptavidin:Allophycocyanin (APC) conjugate and a europium (Eu) labeled antibody directed against phosphorylated-BAD (S112). Excitation of Eu by a high energy laser light (337 nm) leads to a transfer of energy to the APC molecule, and results in an emission at 665 nm. The fluorescence is directly proportional to the amount of phosphorylated BAD peptide present in the reaction.

[1] = tested on: KMS-12-BM myeloma cell line; experiment: Pim cell assay: phospho-BAD (S112) and total BAD in KMS-12-BM cells; format: cell-based; conditions: 1 hour and 50 minutes incubation
Procedure: The KMS-12-BM myeloma cell line was used to determine the in vitro cellular inhibition of Pim kinases. Disruption of Pim signaling by Pim inhibitors was determined by measuring the levels of phospho-BAD (S112) and total BAD. […] The cells were then incubated overnight at 37° C., 5% CO2. […] In addition to the 10-point dosing curve of the test compound, DMSO alone was run as a control. This dilution in DMSO was then diluted again into cell growth medium. Aliquots (11.1 uL) of the compound diluted in growth medium were then transferred to the appropriate wells of the 96-well plates containing cells to yield a final DMSO concentration of 0.3%. The cell plates were then incubated with compound for 1 hour and 50 minutes at 37° C., 5% CO2. After the 1 hour and 50 min incubation, the cell plates were spun at 1000 RPM for 10 minutes and the compound-containing medium was removed. […] The cell plates containing lysis buffer were then immediately stored at −70° C. These prepared lysates were then assayed for phospho-(S112) and total-BAD according to the manufacturer's protocol (Meso Scale Diagnostics, Cat # K15103D-3). The plates were read on the MSD Sector Imager 6000, and results were calculated according to the assay protocol: ((% Phosphoprotein=((2×Phospho signal)/(Phospho signal+Total signal))×100)).

Pim-1 = Pim-1 (Homo sapiens (Human), UniProt P11309); experiment: Pim enzyme assay (HTRF, phosphorylation of biotinylated-BAD (S112) peptide), Pim-1; format: biochemical
Source text: as §1, §2, §3

[2] = full length recombinant Pim-2, biotinylated-BAD (S112) peptide, HTRF, 96-well, read-out: Pim-2 IC50 IP
[3] = Homo sapiens, KMS-12-BM, read-out: KMS-12-BM IC50 IP
[4] = full length recombinant Pim-1, biotinylated-BAD (S112) peptide, HTRF, 96-well, read-out: Pim-1 IC50 IP
[5] = full length recombinant Pim-2, biotinylated-BAD (S112) peptide, HTRF, read-out: Pim2_IC50
[6] = Homo sapiens, KMS-12-BM, read-out: KMS12_Cell_IC50
[7] = full length recombinant Pim-1, biotinylated-BAD (S112) peptide, HTRF, read-out: Pim_1_IC50

Pim-1, sequence (P11309 whole entry): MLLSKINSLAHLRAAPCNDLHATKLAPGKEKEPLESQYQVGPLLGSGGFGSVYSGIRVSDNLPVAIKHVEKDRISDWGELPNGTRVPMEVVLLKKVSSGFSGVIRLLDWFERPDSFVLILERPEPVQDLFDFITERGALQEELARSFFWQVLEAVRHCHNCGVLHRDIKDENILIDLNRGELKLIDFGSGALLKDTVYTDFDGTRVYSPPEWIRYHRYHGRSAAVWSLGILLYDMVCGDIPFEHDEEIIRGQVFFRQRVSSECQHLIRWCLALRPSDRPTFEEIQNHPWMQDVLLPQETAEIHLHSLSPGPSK
Pim-2, sequence (Q9P1W9 whole entry): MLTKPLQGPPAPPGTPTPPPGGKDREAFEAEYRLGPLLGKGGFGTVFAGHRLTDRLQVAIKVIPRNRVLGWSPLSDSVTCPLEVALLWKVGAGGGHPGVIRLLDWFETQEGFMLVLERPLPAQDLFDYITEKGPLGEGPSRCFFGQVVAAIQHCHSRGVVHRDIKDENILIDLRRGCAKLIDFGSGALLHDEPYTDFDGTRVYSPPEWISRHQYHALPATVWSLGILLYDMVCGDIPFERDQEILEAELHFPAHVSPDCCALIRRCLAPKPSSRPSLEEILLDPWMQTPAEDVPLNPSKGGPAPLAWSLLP

Row | SMILES | IC50 (Pim-2; [2]) | IC50 [1, 3] | IC50 (Pim-1; [4]) | IC50 (Pim-2; [5]) | IC50 [1, 6] | IC50 (Pim-1; [7]) | other results
1 | C[C@@H]1C[C@H](N)CN(c2ccncc2Nc2nnc3ccc(-c4ncccc4F)nn23)C1 [Example 92, N-(4-((3S,5R)-3-amino-5-methyl-1-piperidinyl)-3-pyridinyl)-6-(3-fluoro-2-pyridinyl)[1,2,4]triazolo[4,3-b]pyridazin-3-amine] | 10.6 nM | 2200 nM | 1.6 nM | – | – | – | –
2 | CS(=O)(=O)c1ccc(-c2ccc3cnc(Nc4cnccc4N4CCC[C@H](N)C4)n3n2)c(F)c1 [Example 22, N-(4-((3S)-3-amino-1-piperidinyl)-3-pyridinyl)-2-(2-fluoro-4-(methylsulfonyl)phenyl)imidazo[1,5-b]pyridazin-7-amine] | – | – | – | 9.1 nM | 2390 nM | 1.2 nM | –
3 | N[C@H]1CCCN(c2ccncc2Nc2ncc3ccc(-c4ccccc4Cl)nn23)C1 [Example 4, N-(4-((3S)-3-amino-1-piperidinyl)-3-pyridinyl)-2-(2-chlorophenyl)imidazo[1,5-b]pyridazin-7-amine] | – | – | – | 3 nM | 2670 nM | 0.9 nM | –
4 | C[C@@H]1CCN(c2ccncc2Nc2ncc3ccc(-c4c(F)cccc4F)nn23)C[C@H]1N (single isomer, unassigned) [Example 101, N-(4-((trans)-3-amino-4-methylpiperidin-1-yl)pyridin-3-yl)-2-(2,6-difluorophenyl)imidazo[1,5-b]pyridazin-7-amine tris(2,2,2-trifluoroacetate)] | 32.4 nM | – | 7.6 nM | – | – | – | IC50 ([1]; tris(2,2,2-trifluoroacetate), read-out: KMS-12-BM IC50 IP): 6930 nM
5 | N[C@H]1C[C@H](C(F)(F)F)CN(c2ccncc2Nc2ncc3ccc(-c4c(F)cccc4F)nn23)C1 (racemic) [Example 61, rac-N-(4-((trans)-3-amino-5-(trifluoromethyl)piperidin-1-yl)pyridin-3-yl)-2-(2,6-difluorophenyl)imidazo[1,5-b]pyridazin-7-amine bis(2,2,2-trifluoroacetate)] | 1.4 nM | 1630 nM | 0.4 nM | – | – | – | –
6 | C[C@H]1CN(c2ccncc2Nc2ncc3ccc(-c4c(F)cccc4F)nn23)C[C@@H](N)[C@@H]1O [Example 20, (3R,4R,5S)-3-amino-1-(3-((2-(2,6-difluorophenyl)imidazo[1,5-b]pyridazin-7-yl)amino)-4-pyridinyl)-5-methyl-4-piperidinol] | – | – | – | 0.08 nM | 40 nM | 0.04 nM | –
7 | N[C@H]1CCCN(c2ccncc2Nc2ncc3ccc(-c4ccc(Cl)cc4Cl)nn23)C1 [Example 11, N-(4-((3S)-3-amino-1-piperidinyl)-3-pyridinyl)-2-(2,4-dichlorophenyl)imidazo[1,5-b]pyridazin-7-amine] | – | – | – | 11 nM | 5010 nM | 2 nM | –
8 | N[C@H]1CCCN(c2ccncc2Nc2ncc3ccc(-c4ccccc4F)nn23)C1 [Example 15, N-(4-((3S)-3-amino-1-piperidinyl)-3-pyridinyl)-2-(2-fluorophenyl)imidazo[1,5-b]pyridazin-7-amine bis(2,2,2-trifluoroacetate)] | – | – | – | 2 nM | 1540 nM | – | IC50 (Pim-1; read-out: Pim_1_IC50): 0.2 nM
9 | N[C@H]1CCCN(c2ccncc2Nc2ncc3ccc(-c4cccnc4F)nn23)C1 [Example 7, N-(4-((3S)-3-amino-1-piperidinyl)-3-pyridinyl)-2-(2-fluoro-3-pyridinyl)imidazo[1,5-b]pyridazin-7-amine] | – | – | – | 12 nM | 6600 nM | 0.9 nM | –
10 | N[C@H]1CCCN(c2ccncc2Nc2nnc3ccc(-c4ncccc4F)nn23)C1 [Example 91, N-(4-((3S)-3-amino-1-piperidinyl)-3-pyridinyl)-6-(3-fluoro-2-pyridinyl)[1,2,4]triazolo[4,3-b]pyridazin-3-amine bis(2,2,2-trifluoroacetate)] | – | 11300 nM | 5.6 nM | – | – | – | IC50 (Pim-2; read-out: Pim-2 IC50 IP): 30.5 nM
11 | Cc1cc(N)cc(-c2ccncc2Nc2ncc3ccc(-c4c(F)cccc4F)nn23)c1 [Example 42, N-(4-(3-amino-5-methylphenyl)-3-pyridinyl)-2-(2,6-difluorophenyl)imidazo[1,5-b]pyridazin-7-amine] | 34.4 nM | 9860 nM | 8.6 nM | – | – | – | –
12 | Clc1ccccc1-c1ccc2cnc(Nc3cnccc3O[C@H]3CCCNC3)n2n1 [Example 16, 2-(2-chlorophenyl)-N-(4-((3S)-3-piperidinyloxy)-3-pyridinyl)imidazo[1,5-b]pyridazin-7-amine bis(2,2,2-trifluoroacetate)] | – | – | – | 298 nM | > 1000 nM | 44 nM | –
13 | N[C@H]1CCCN(c2ccncc2Nc2ncc3ccc(-c4ncccc4Cl)nn23)C1 [Example 78, (S)-N-(4-(3-aminopiperidin-1-yl)pyridin-3-yl)-2-(3-chloropyridin-2-yl)imidazo[1,5-b]pyridazin-7-amine] | 2.6 nM | 620 nM | 0.9 nM | – | – | – | –
14 | N[C@H]1CCCN(c2ccncc2Nc2ncc3ccc(-c4ccccn4)nn23)C1 [Example 64, (S)-N-(4-(3-aminopiperidin-1-yl)pyridin-3-yl)-2-(pyridin-2-yl)imidazo[1,5-b]pyridazin-7-amine] | 6.4 nM | 1760 nM | 1.5 nM | – | – | – | –
15 | N[C@H]1CCCN(c2ccncc2Nc2ncc3ccc(-c4cc(C(=O)NC5CC5)ccc4F)nn23)C1 [Example 74, 3-(7-((4-((3S)-3-amino-1-piperidinyl)-3-pyridinyl)amino)imidazo[1,5-b]pyridazin-2-yl)-N-cyclopropyl-4-fluorobenzamide] | 0.5 nM | 185 nM | 0.2 nM | – | – | – | –
16 | N[C@@H]1C=C(c2ccncc2Nc2ncc3ccc(-c4c(F)cccc4F)nn23)CC[C@H]1F (racemic) [Example 93, (2,2,2-trifluoroacetate)] | 15.5 nM | 2600 nM | – | – | – | – | –
